# Values quoted from earlier work, collected in patent publication US7888378B2, “Thiadiazole compounds and uses thereof” (Mallinckrodt Inc., priority 2006, dated 2011).
# Test system: tumors
# Settings: after administering the substance
structure (smiles),measurement,value
NCC(=O)CCC(=O)O [delta-aminolevulinic acid],uptake of porphyrins in tumors compared to normal tissues,two-fold
